Earlier results as cited in US8868172B2, “Methods and systems for recommending an appropriate action to a patient for managing epilepsy and other neurological disorders” (Cyberonics, Inc., priority 2005, dated 2014).
Read-outs that look alike come from different tables or passages of the source.

How the values were obtained:
[1] = tested on: GABA/benzodiazepine receptor ionophore complex; settings: allosteric, no changes in chloride flux
[2] = tested on: carbonic anhydrase
[3] = tested on: cultured mouse spinal cord neurons; settings: 10-30 μg/mL
[4] = tested on: T-type Ca^2+ currents; settings: in vitro
[5] = tested on: sodium channels; settings: in vitro
[6] = tested on: dopaminergic and serotonergic neurotransmission; settings: in vivo microdialysis
[7] = tested on: rat hippocampal slices; settings: 10-30 μg/mL
[8] = for plasma concentration average per daily dose of 1 mg/kg: long term therapy
[9] = not given; remark: listed apart in the source
[10] = per daily dose of 1 mg/kg of the drug itself

SMILES: NS(=O)(=O)Cc1noc2ccccc12 [zonisamide, 1,2-benzisoxazole-3-methanesulfonamide]
- binding to the GABA/benzodiazepine receptor ionophore complex [1]: binds
- carbonic anhydrase inhibiting activity [2]: weak
- effect on postsynaptic GABA or glutamate responses [3]: without affecting
- effect on synaptically-driven electrical activity [3]: suppresses
- effect on voltage-dependent, transient inward currents (T-type Ca2+ currents) [4]: reduces
- effect on sodium channels [5]: blocks
- effect on dopaminergic and serotonergic neurotransmission [6]: facilitates
- effect on neuronal or glial uptake of [3H]-GABA [7]: without affecting

SMILES: CCC1(c2ccccc2)C(=O)NC(=O)NC1=O [phenobarbital]
- plasma concentration of phenobarbital per daily dose of 1 mg/kg of primidone ([8]; long term therapy with primidone): about 2 μg/ml
- plasma concentration average per daily dose of 1 mg/kg ([8]; adults, per daily dose of 1 mg/kg): about 10 μg/ml

SMILES: O=C1NC(=O)C(c2ccccc2)(c2ccccc2)N1 [Phenyloin, diphenylhydantoin]
- concentrations at which toxic effects such as nystagmus develop: around 20 μg/ml
- concentrations at which chronic control of seizures is generally obtained [9]: above 10 μg/ml

SMILES: CCC1(c2ccccc2)C(=O)NCNC1=O [primidone, Primidone]
- plasma concentration average per daily dose of 1 mg/kg [8, 10]: about 1 μg/ml

SMILES: CCC1(C)CC(=O)NC1=O (centres unmarked) [ethosuximide, Ethosuximide]
- plasma concentration average per daily dose of 1 mg/kg [8, 10]: about 2 μg/ml
